In ChEMBL document CHEMBL5370655:
Activity calls are given as the source filed them. The calls are words filed in the database; no cut-off is given here.

What was measured:
[1] = Toxicity in BALB/c mouse xenografted with human H1975-TM cells assessed as appearance of lesions in spleen at 25 to 100 mg/kg, po measured after 25 days by hematoxylin-eosin staining based analysis; assay type: organism-based; details: in vivo, 600 h, dose 25-100 mg/kg, time 25 day
[2] = Half life in Sprague-Dawley rat at 5 mg/kg, iv measured upto 24 hrs by HPLC-MS/MS analysis; assay type: ADME, organism-based; details: in vivo
[3] = target: Epidermal growth factor receptor (Homo sapiens, UniProt P00533)
Sequence of Epidermal growth factor receptor (Homo sapiens, UniProt P00533) (P00533 whole entry): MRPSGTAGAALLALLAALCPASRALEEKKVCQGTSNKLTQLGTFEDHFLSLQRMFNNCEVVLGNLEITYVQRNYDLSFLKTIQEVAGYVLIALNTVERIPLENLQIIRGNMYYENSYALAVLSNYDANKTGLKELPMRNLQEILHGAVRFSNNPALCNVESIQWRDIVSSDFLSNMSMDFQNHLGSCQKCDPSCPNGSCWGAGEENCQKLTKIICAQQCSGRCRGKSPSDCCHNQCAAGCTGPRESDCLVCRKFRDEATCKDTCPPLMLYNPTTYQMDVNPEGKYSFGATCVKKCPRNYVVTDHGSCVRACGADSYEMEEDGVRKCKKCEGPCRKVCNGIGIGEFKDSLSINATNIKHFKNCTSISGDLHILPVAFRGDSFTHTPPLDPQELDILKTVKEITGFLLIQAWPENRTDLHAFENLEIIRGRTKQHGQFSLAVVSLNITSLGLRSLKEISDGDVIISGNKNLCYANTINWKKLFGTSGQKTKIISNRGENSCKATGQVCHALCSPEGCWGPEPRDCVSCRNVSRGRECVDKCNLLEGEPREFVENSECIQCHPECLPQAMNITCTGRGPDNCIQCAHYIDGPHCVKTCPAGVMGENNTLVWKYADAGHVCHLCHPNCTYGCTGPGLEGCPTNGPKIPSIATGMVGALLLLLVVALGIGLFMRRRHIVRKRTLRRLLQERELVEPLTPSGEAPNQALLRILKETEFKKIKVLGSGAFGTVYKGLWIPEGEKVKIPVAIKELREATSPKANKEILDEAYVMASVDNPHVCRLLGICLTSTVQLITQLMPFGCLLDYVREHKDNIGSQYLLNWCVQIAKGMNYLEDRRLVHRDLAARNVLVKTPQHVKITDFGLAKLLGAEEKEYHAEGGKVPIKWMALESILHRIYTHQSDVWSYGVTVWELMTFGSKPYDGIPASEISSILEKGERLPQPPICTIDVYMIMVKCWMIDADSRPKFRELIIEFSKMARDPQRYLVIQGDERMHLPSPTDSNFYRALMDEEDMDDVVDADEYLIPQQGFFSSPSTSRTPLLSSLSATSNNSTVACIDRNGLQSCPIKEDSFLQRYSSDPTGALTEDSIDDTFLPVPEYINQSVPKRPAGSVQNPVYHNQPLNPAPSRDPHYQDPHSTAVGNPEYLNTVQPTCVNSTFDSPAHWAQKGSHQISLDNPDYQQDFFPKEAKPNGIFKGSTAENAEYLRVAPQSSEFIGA
Description: Inhibition of wild-type EGFR (unknown origin) using polyE4Y1 as substrate incubated for 5 mins with compound followed by substrate addition measured after 60 mins in presence of ATP by ADP-Glo reagent based assay

[4] = target: Epidermal growth factor receptor (Homo sapiens, UniProt P00533, L858R/T790M); assay: Inhibition of EGFR L858R/T790M double mutant (unknown origin) using polyE4Y1 as substrate incubated for 5 mins with compound followed by substrate addition measured after 60 mins in presence of ATP by ADP-Glo reagent based assay
Sequence of Epidermal growth factor receptor (Homo sapiens, UniProt P00533, L858R/T790M) (P00533 25-1210 T790M/L858R limits assumed): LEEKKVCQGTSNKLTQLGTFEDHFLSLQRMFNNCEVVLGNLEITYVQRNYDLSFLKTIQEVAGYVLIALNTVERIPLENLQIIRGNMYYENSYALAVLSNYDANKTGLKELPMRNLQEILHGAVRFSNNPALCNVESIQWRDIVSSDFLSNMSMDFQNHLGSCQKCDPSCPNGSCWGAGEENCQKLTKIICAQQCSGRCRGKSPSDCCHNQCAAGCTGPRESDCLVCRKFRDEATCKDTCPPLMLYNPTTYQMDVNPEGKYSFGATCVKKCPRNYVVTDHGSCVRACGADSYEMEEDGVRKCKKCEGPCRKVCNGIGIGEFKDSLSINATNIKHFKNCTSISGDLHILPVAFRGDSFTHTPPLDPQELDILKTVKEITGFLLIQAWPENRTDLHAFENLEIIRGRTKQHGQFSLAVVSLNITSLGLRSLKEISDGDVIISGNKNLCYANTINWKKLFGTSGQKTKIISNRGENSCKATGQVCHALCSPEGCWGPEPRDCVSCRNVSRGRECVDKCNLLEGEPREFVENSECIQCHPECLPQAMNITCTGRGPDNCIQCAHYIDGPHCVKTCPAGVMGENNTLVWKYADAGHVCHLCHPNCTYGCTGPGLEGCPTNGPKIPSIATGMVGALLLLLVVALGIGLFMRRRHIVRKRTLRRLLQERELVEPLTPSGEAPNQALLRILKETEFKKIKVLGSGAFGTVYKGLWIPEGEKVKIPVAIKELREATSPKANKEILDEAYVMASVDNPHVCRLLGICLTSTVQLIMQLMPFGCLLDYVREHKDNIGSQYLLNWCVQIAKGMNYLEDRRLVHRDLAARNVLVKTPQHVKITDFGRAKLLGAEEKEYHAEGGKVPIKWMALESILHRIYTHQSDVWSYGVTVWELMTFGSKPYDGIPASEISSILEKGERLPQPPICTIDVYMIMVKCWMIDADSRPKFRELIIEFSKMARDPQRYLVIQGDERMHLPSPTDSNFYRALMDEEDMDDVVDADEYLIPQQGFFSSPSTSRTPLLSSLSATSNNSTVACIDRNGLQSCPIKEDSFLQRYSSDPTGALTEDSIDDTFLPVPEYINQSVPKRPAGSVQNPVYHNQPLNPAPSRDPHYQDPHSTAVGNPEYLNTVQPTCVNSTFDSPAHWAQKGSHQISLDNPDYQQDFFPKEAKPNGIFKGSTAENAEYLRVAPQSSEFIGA

[5] = Downregulation of EGFR phosphorylation in human H1975-TM cells at 1000 nM measured after 24 hrs by Western blot analysis; assay type: functional
H1975-TM [6] = assay: Downregulation of ERK level in human H1975-TM cells at 50 to 1000 nM measured after 24 hrs by Western blot analysis; assay type: functional, cell-based; details: dose 50-1000 nM
[7] = Toxicity in BALB/c mouse xenografted with human H1975-TM cells assessed as appearance of lesions in kidney at 25 to 100 mg/kg, po measured after 25 days by hematoxylin-eosin staining based analysis; assay type: organism-based; details: in vivo, 600 h, dose 25-100 mg/kg, time 25 day
A-431 = assay: Antiproliferative activity against human A-431 cells assessed as inhibition of cell growth measured after 72 hrs by CCK8 assay; assay type: functional, cell-based; details: A-431, 72 h
H1975-TM [8] = assay: Downregulation of EGFR phosphorylation in human H1975-TM cells at 50 to 1000 nM measured after 24 hrs by Western blot analysis; assay type: functional, cell-based; details: dose 50-1000 nM
H1975-TM [9] = assay: Downregulation of AKT level in human H1975-TM cells at 50 to 1000 nM measured after 24 hrs by Western blot analysis; assay type: functional, cell-based; details: dose 50-1000 nM
[10] = Induction of cell cycle arrest in human H1975-TM cells assessed as accumulation at G0/G1 phase at 250 nM measured after 24 hrs by RNase A/propidium iodide staining based flow cytometric analysis (reference value: 64.3 %); assay type: functional

half-life [2]: 4.7 h
IC50 [3]: 106 nM
IC50 [4]: 21 nM
IC50 (A-431): 1400 nM
Structure (SMILES): CCS(=O)(=O)N1CCC(c2nc(-c3ccc(F)cc3)c(-c3ccnc(Nc4ccc5c(ccn5CCN(C)C)c4)n3)s2)CC1
Activity [1]: Non-Toxic
Activity [5]: 100%
Activity (H1975-TM [6]): Active
Activity [7]: Non-Toxic
Activity (H1975-TM [8]): Active
Activity (H1975-TM [9]): Active
Activity [10]: 70.3%
